Test results from PMC8073777, “Design, Synthesis, Biological Evaluation and In Silico Studies of Pyrazole-Based NH2-Acyl Oseltamivir Analogues as Potent Neuraminidase Inhibitors” (Pharmaceuticals, 2021).

These compounds were tested against A/H3N2 influenza NA (Influenza A virus (H3N2), UniProt Q91IQ5). Conditions: 10 µM.
Type: biochemical, A/H3N2 influenza virus (clinical isolate from Hong Kong)

Point of comparison: `CCC(CC)O[C@@H]1C=C(C(=O)O)C[C@H](NC(=O)c2cnn(Cc3cccc([N+](=O)[O-])c3)c2)[C@H]1NC(C)=O` [Compound 6d, (3R,4R,5S)-4-acetamido-5-(1-(3-nitrobenzyl)-1H-pyrazole-4-carboxamido)-3-(pentan-3-yloxy) cyclohex-1-ene-1-carboxylic acid], “Inhibitory rate against A/H3N2 influenza NA” value 12.26%. Against it:
- CCC(CC)O[C@@H]1C=C(C(=O)O)C[C@H](NC(=O)c2cnn(Cc3ccccc3)c2)[C@H]1NC(C)=O [Compound 6a, (3R,4R,5S)-4-acetamido-5-(1-benzyl-1H-pyrazole-4-carboxamido)-3-(pentan-3-yloxy) cyclohex-1-ene-1-carboxylic acid] — higher, 32.02%
- CCC(CC)O[C@@H]1C=C(C(=O)O)C[C@H](NC(=O)c2cnn(Cc3ccccc3Cl)c2)[C@H]1NC(C)=O [Compound 6b, (3R,4R,5S)-4-acetamido-5-(1-(2-chlorobenzyl)-1H-pyrazole-4-carboxamido)-3-(pentan-3-yloxy) cyclohex-1-ene-1-carboxylic acid] — higher, 18.88%
- CCC(CC)O[C@@H]1C=C(C(=O)O)C[C@H](NC(=O)c2cnn(Cc3cccc(Cl)c3)c2)[C@H]1NC(C)=O [Compound 6c, (3R,4R,5S)-4-acetamido-5-(1-(3-chlorobenzyl)-1H-pyrazole-4-carboxamido)-3-(pentan-3-yloxy) cyclohex-1-ene-1-carboxylic acid] — higher, 23.88%
- CCC(CC)O[C@@H]1C=C(C(=O)O)C[C@H](NC(=O)c2cnn(Cc3cccc(OC)c3)c2)[C@H]1NC(C)=O [Compound 6e, (3R,4R,5S)-4-acetamido-5-(1-(3-methoxybenzyl)-1H-pyrazole-4-carboxamido)-3-(pentan-3-yloxy) cyclohex-1-ene-1-carboxylic acid] — higher, 23.37%
- CCC(CC)O[C@@H]1C=C(C(=O)O)C[C@H](NC(=O)c2cnn(Cc3ccc(OC)cc3)c2)[C@H]1NC(C)=O [Compound 6f, (3R,4R,5S)-4-acetamido-5-(1-(4-methoxybenzyl)-1H-pyrazole-4-carboxamido)-3-(pentan-3-yloxy) cyclohex-1-ene-1-carboxylic acid] — higher, 26.79%
- CCC(CC)O[C@@H]1C=C(C(=O)O)C[C@H](NC(=O)c2cnn(Cc3ccc(C(F)(F)F)cc3)c2)[C@H]1NC(C)=O [Compound 6g, (3R,4R,5S)-4-acetamido-3-(pentan-3-yloxy)-5-(1-(4-(trifluoromethyl)benzyl)-1H-pyrazole-4-carboxamido) cyclohex-1-ene-1-carboxylic acid] — higher, 21.72%
- CCC(CC)O[C@@H]1C=C(C(=O)O)C[C@H](NC(=O)c2cnn(-c3ccccc3C)c2)[C@H]1NC(C)=O [Compound 6h, (3R,4R,5S)-4-acetamido-3-(pentan-3-yloxy)-5-(1-(o-tolyl)-1H-pyrazole-4-carboxamido) cyclohex-1-ene-1-carboxylic acid] — higher, 38.37%
- CCC(CC)O[C@@H]1C=C(C(=O)O)C[C@H](NC(=O)c2cnn(-c3ccc(C)cc3)c2)[C@H]1NC(C)=O [Compound 6i, (3R,4R,5S)-4-acetamido-3-(pentan-3-yloxy)-5-(1-(p-tolyl)-1H-pyrazole-4-carboxamido) cyclohex-1-ene-1-carboxylic acid] — higher, 52.31%
- CCC(CC)O[C@@H]1C=C(C(=O)O)C[C@H](NC(=O)c2cnn(-c3ccc(OC)cc3)c2)[C@H]1NC(C)=O [Compound 6j, (3R,4R,5S)-4-acetamido-5-(1-(4-methoxyphenyl)-1H-pyrazole-4-carboxamido)-3-(pentan-3-yloxy) cyclohex-1-ene-1-carboxylic acid] — higher, 34.15%
- CCC(CC)O[C@@H]1C=C(C(=O)O)C[C@H](NC(=O)c2cnn(-c3ccc(Cl)cc3)c2)[C@H]1NC(C)=O [Compound 6k, (3R,4R,5S)-4-acetamido-5-(1-(4-chlorophenyl)-1H-pyrazole-4-carboxamido)-3-(pentan-3-yloxy) cyclohex-1-ene-1-carboxylic acid] — higher, 25.67%
- CCC(CC)O[C@@H]1C=C(C(=O)O)C[C@H](NC(=O)c2cc(-c3ccccc3)n[nH]2)[C@H]1NC(C)=O [Compound 12a, (3R,4R,5S)-4-acetamido-3-(pentan-3-yloxy)-5-(3-phenyl-1H-pyrazole-5-carboxamido) cyclohex-1-ene-1-carboxylic acid] — higher, 42.81%
- CCC(CC)O[C@@H]1C=C(C(=O)O)C[C@H](NC(=O)c2cc(-c3ccc(Cl)cc3)n[nH]2)[C@H]1NC(C)=O [Compound 12b, (3R,4R,5S)-4-acetamido-5-(3-(4-chlorophenyl)-1H-pyrazole-5-carboxamido)-3-(pentan-3-yloxy) cyclohex-1-ene-1-carboxylic acid] — higher, 50.43%
- CCC(CC)O[C@@H]1C=C(C(=O)O)C[C@H](NC(=O)c2cc(-c3ccc(F)cc3)n[nH]2)[C@H]1NC(C)=O [Compound 12c, (3R,4R,5S)-4-acetamido-5-(3-(4-fluorophenyl)-1H-pyrazole-5-carboxamido)-3-(pentan-3-yloxy) cyclohex-1-ene-1-carboxylic acid] — higher, 56.45%
- CCC(CC)O[C@@H]1C=C(C(=O)O)C[C@H](NC(=O)c2cc(-c3ccc(C(F)(F)F)cc3)n[nH]2)[C@H]1NC(C)=O [Compound 12d, (3R,4R,5S)-4-acetamido-3-(pentan-3-yloxy)-5-(3-(4-(trifluoromethyl)phenyl)-1H-pyrazole-5-carboxamido) cyclohex-1-ene-1-carboxylic acid] — higher, 46.7%
- CCC(CC)O[C@@H]1C=C(C(=O)O)C[C@H](NC(=O)c2cc(-c3ccc(OC)cc3)n[nH]2)[C@H]1NC(C)=O [Compound 12e, (3R,4R,5S)-4-acetamido-5-(3-(4-methoxyphenyl)-1H-pyrazole-5-carboxamido)-3-(pentan-3-yloxy) cyclohex-1-ene-1-carboxylic acid] — higher, 42.02%
- CCC(CC)O[C@@H]1C=C(C(=O)O)C[C@H](NC(=O)c2cc(-c3cccs3)n[nH]2)[C@H]1NC(C)=O [Compound 12f, (3R,4R,5S)-4-acetamido-3-(pentan-3-yloxy)-5-(3-(thiophen-2-yl)-1H-pyrazole-5-carboxamido) cyclohex-1-ene-1-carboxylic acid] — higher, 40.02%
- CCC(CC)O[C@@H]1C=C(C(=O)O)C[C@H](NC(=O)c2cc(-c3ccc(Cl)cc3)nn2CC2CC2)[C@H]1NC(C)=O [Compound 16a, (3R,4R,5S)-4-acetamido-5-(3-(4-chlorophenyl)-1-(cyclopropylmethyl)-1H-pyrazole-5-carboxamido)-3-(pentan-3-yloxy) cyclohex-1-ene-1-carboxylic acid] — higher, 31.50%
- CCC(CC)O[C@@H]1C=C(C(=O)O)C[C@H](NC(=O)c2cc(-c3ccc(Cl)cc3)nn2CC2CCC2)[C@H]1NC(C)=O [Compound 16b, (3R,4R,5S)-4-acetamido-5-(3-(4-chlorophenyl)-1-(cyclobutylmethyl)-1H-pyrazole-5-carboxamido)-3-(pentan-3-yloxy) cyclohex-1-ene-1-carboxylic acid] — higher, 39.81%
- CCC(CC)O[C@@H]1C=C(C(=O)O)C[C@H](NC(=O)c2cc(-c3ccc(Cl)cc3)nn2CC2CCCCC2)[C@H]1NC(C)=O [Compound 16c, (3R,4R,5S)-4-acetamido-5-(3-(4-chlorophenyl)-1-(cyclohexylmethyl)-1H-pyrazole-5-carboxamido)-3-(pentan-3-yloxy) cyclohex-1-ene-1-carboxylic acid] — higher, 48.50%
- CCC(CC)O[C@@H]1C=C(C(=O)O)C[C@H](NC(=O)c2cc(C3CC3)n(-c3ccccc3)n2)[C@H]1NC(C)=O [Compound 24a, (3R,4R,5S)-4-acetamido-5-(5-cyclopropyl-1-phenyl-1H-pyrazole-3-carboxamido)-3-(pentan-3-yloxy) cyclohex-1-ene-1-carboxylic acid] — higher, 30.57%
- CCC(CC)O[C@@H]1C=C(C(=O)O)C[C@H](NC(=O)c2cc(C3CC3)n(-c3ccccc3C)n2)[C@H]1NC(C)=O [Compound 24b, (3R,4R,5S)-4-acetamido-5-(5-cyclopropyl-1-(o-tolyl)-1H-pyrazole-3-carboxamido)-3-(pentan-3-yloxy) cyclohex-1-ene-1-carboxylic acid] — higher, 60.91%
- CCC(CC)O[C@@H]1C=C(C(=O)O)C[C@H](NC(=O)c2cc(C3CC3)n(-c3cccc(C)c3)n2)[C@H]1NC(C)=O [Compound 24c, (3R,4R,5S)-4-acetamido-5-(5-cyclopropyl-1-(m-tolyl)-1H-pyrazole-3-carboxamido)-3-(pentan-3-yloxy) cyclohex-1-ene-1-carboxylic acid] — higher, 34.75%
- CCC(CC)O[C@@H]1C=C(C(=O)O)C[C@H](NC(=O)c2cc(C3CC3)n(-c3ccc(Br)cc3)n2)[C@H]1NC(C)=O [Compound 24d, (3R,4R,5S)-4-acetamido-5-(1-(4-bromophenyl)-5-cyclopropyl-1H-pyrazole-3-carboxamido)-3-(pentan-3-yloxy) cyclohex-1-ene-1-carboxylic acid] — higher, 42.68%
- CCC(CC)O[C@@H]1C=C(C(=O)O)C[C@H](NC(=O)c2cc(C3CC3)n(-c3ccc(C(F)(F)F)cc3)n2)[C@H]1NC(C)=O [Compound 24e, (3R,4R,5S)-4-acetamido-5-(5-cyclopropyl-1-(4-(trifluoromethyl)phenyl)-1H-pyrazole-3-carboxamido)-3-(pentan-3-yloxy) cyclohex-1-ene-1-carboxylic acid] — higher, 44.47%
- CCC(CC)O[C@@H]1C=C(C(=O)O)C[C@H](NC(=O)c2cc(C3CC3)nn2-c2ccccc2)[C@H]1NC(C)=O [Compound 26a, (3R,4R,5S)-4-acetamido-5-(3-cyclopropyl-1-phenyl-1H-pyrazole-5-carboxamido)-3-(pentan-3-yloxy) cyclohex-1-ene-1-carboxylic acid] — higher, 30.41%
- CCC(CC)O[C@@H]1C=C(C(=O)O)C[C@H](NC(=O)c2cc(C3CC3)nn2-c2ccccc2C)[C@H]1NC(C)=O [Compound 26b, (3R,4R,5S)-4-acetamido-5-(3-cyclopropyl-1-(o-tolyl)-1H-pyrazole-5-carboxamido)-3-(pentan-3-yloxy) cyclohex-1-ene-1-carboxylic acid] — higher, 72.80%
